Experimental data published in patent US20090118135A1, “METHODS AND COMPOUNDS FOR REGULATING APOPTOSIS” (The Burnham Institute, priority 2007, published 2009).

Target: T1, GST-Bfl-1 (Homo sapiens, UniProt Q16548)
T1 construct: lacking their C-terminal transmembrane domains (about the last 20 amino acids) (“ΔTM”); made in house; host or cells: XL-1 Blue E. coli, pGEX 4T-1
T1 sequence (Q16548 1-155 limits assumed): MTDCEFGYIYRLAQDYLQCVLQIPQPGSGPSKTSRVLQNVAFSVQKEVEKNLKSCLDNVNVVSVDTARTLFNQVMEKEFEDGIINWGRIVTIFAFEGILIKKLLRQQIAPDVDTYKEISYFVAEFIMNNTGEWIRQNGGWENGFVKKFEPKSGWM
Test: Bfl-1/FITC-Bid BH3 competitive fluorescence polarization assay
Format: binding
Conditions: primary HTS hits, MLSCN library (PubChem SIDs), Table 5B
Protocol: A FPA was performed to determine the binding affinity of FITC-Bid BH3 peptide to Bcl-2 proteins. […] IC50 determinations were performed using GraphPad Prism software (GraphPad, Inc., San Diego, Calif.). FPA competition assays were performed using the same procedure described above, except that 100 nM of GST-Bfl-1 protein in a volume of 45 μl was incubated with 5 μl (50 μM) test compounds in DMSO per well for 30 min prior to addition of 50 μl (5 nM) FITC-Bid BH3 peptide. The final DMSO concentration was 5% when the reactions brought to fall volume of 100 μl. Fluorescence polarization was measured after 10 min. Compounds that reduced the fluorescence polarization by 50% were considered hits.

Compound | % Activity | FRatio
CCN1CCN(c2ccc(NC(=O)c3cccc4ncccc34)cc2)CC1 [Compound 842582] | 76.3% | 0.21
O=C1c2ccccc2CC1Sc1nnc(-c2ccccn2)o1 (stereo not shown) [Compound 842657] | 65.7% | 1.17
Cc1ccc2c(c1C)NC(C(=O)O)C1CC=CC21 (stereo not shown) [Compound 844096] | 98.3% | 0.53
N=c1c(C(=O)NCC2CCCO2)cc2c(=O)n3ccccc3nc2n1Cc1cccnc1 (stereo not shown) [Compound 844196] | 63.4% | 0.93
Cc1c(NC(=O)c2cc3nc(-c4ccccc4)cc(C)n3n2)c(=O)n(-c2ccccc2)n1C [Compound 844334] | 63.5% | 0.88
c1coc(C2Nc3cccc4cccc(c34)N2)c1 [Compound 844697] | 78.1% | 1.08
Cc1nn2c(N)csc2nc1=O [Compound 846443] | 56.4% | 1.35
COc1ccc(OC)c(NC(=O)CCN2CCC(C)CC2)c1 [Compound 846609] | 73% | 0.65
COc1cccc(C(=O)NC2CC3CCCC(C2)N3CC(=O)Nc2ccccc2)c1 (stereo not shown) [Compound 847772] | 90% | 0.72
O=C(O)CCc1ccc(-c2cccs2)n1CCC(=O)O [Compound 848328] | 74.6% | 0.59
Cc1cccn2c(=O)c3cc(C(=O)NCC4CCCO4)c(=N)n(Cc4cccnc4)c3nc12 (stereo not shown) [Compound 849581] | 60.6% | 0.89
CC(=O)C1=C(O)C(=O)N(Cc2ccccc2)C1c1ccco1 (stereo not shown) [Compound 851207] | 52.6% | 0.52
O=C(CSc1n[nH]c(-c2ccccc2)n1)c1ccc(O)c(O)c1 [Compound 851690] | 75.1% | 0.43
Cc1ccc(C)n1C(Cc1ccccc1)C(=O)O (stereo not shown) [Compound 852148] | 82.9% | 1.37
Oc1ccc(Nc2nc(N3CCCC3)c3ccccc3n2)cc1 [Compound 852615] | 96.1% | 0.46
COc1ccc(NC(=O)C2CCN(c3nc(C)nc4c3CCC4)CC2)cc1 [Compound 852694] | 66.2% | 1.37
CC1CCN(c2ccc(C(=O)O)cc2N)CC1 [Compound 852908] | 73.3% | 0.75
c1coc(-c2nn3c(-c4ccco4)nnc3s2)c1 [Compound 853208] | 60.4% | 0.83
CCN(CC)CCc1c(C)[nH]c(C(=O)OCc2ccccc2)c1C [Compound 853427] | 70.8% | 1
CN(C)c1ccc(NC(=O)CN2C(=O)CC(c3ccccc3)=Nc3ccccc32)cc1 [Compound 853473] | 62.6% | 0.6
O=C1c2ccccc2C(=O)N1CC#CCN1CCN(C2CCCCC2)CC1 [Compound 856035] | 56.3% | 0.7
Cc1c[nH]c2cccc(OCC(O)CNC(C)(C)C)c12 (stereo not shown) [Compound 856249] | 52.2% | 0.65
N#C/C(C(N)=O)=c1/ccc2c(c1)N1C3=C(CCCC3)CC3CCCCC31N=2 (stereo not shown) [Compound 856266] | 74.3% | 0.62
CCn1c(SC(C)C(=O)O)nc2sc3c(c2c1=O)CCC3 (stereo not shown) [Compound 856662] | 95.1% | 0.59
CCn1c(SCC(=O)O)nc2sc3c(c2c1=O)CCC3 [Compound 856717] | 83% | 0.85

Compound | % Activity | FRatio
C=CCn1c(SCC(=O)OC)nc2sc3c(c2c1=O)CCN(C)C3 [Compound 856802] | 53.2% | 1.23
CC(=O)C1=C(C)OC(N)=C(C#N)C1c1ccco1 (stereo not shown) [Compound 857779] | 65.4% | 1.13
O=C(CCN1CCc2ccccc21)c1ccc2c(c1)OCCO2 [Compound 857910] | 79.4% | 0.24
Cc1ccc(N2CN=c3s/c(=C\c4cccnc4)c(=O)n3C2)cc1 [Compound 858221] | 78.6% | 0.88
Cc1ccc(C)n1Cc1ccc(C(=O)O)cc1 [Compound 858431] | 76.8% | 0.63
CSc1nnc(-c2ccco2)c(-c2ccco2)n1 [Compound 859770] | 107% | 0.53
Cn1c(=N)c(S(=O)(=O)c2ccccc2)cc2c(=O)n3ccccc3nc21 [Compound 859963] | 50.4% | 1.49
O=S(=O)(c1ccccc1)N(CC(O)CN1CCCCC1)c1ccccc1 (stereo not shown) [Compound 859970] | 53.9% | 0.98
CC(=O)Nc1ccc(OC(=O)CC2SC(=O)NC2=O)cc1 (stereo not shown) [Compound 860139] | 68.2% | 1.06
O=C(CSc1nnc(-c2ccco2)c(-c2ccco2)n1)Nc1ccccc1 [Compound 860234] | 71.5% | 1.17
Cc1ccc(NC(=O)CSc2nnc(-c3ccco3)c(-c3ccco3)n2)cc1 [Compound 860242] | 56.9% | 1.34
O=C(c1coc(=O)c(Br)c1)N1CCOCC1 [Compound 860621] | 84.9% | 0.55
ClC1=CCC2CN(CCN3CCCCC3)CC2C1 (stereo not shown) [Compound 860752] | 67.7% | 0.79
COC(=O)c1[nH]c2ccc(C)cc2c1NC(=O)CCN1CCN(Cc2ccc3c(c2)OCO3)CC1 [Compound 862218] | 69.7% | 0.81
CC1(C)CCCN(C(=O)c2coc(=O)c(Br)c2)C1 [Compound 862800] | 80.8% | 0.65
CN(C)CCSc1nc(N)c2c3c(sc2n1)CN(C)CC3 [Compound 862887] | 72.8% | 0.98
O=c1nc2s/c(=C\c3ccco3)c(=O)n2nc1Cc1ccc(F)cc1 [Compound 863170] | 58.4% | 0.32
COC(=O)c1[nH]c2cccc(OC)c2c1NC(=O)CCN1CCC(C(N)=O)CC1 [Compound 863493] | 71.7% | 0.76
CC(=O)c1c(COC(=O)c2ccco2)nc2ccccc2[n+]1[O-] [Compound 863818] | 68.3% | 0.88
C=CCn1c(SCC(=O)c2ccc(O)c(O)c2)nnc1-c1ccccc1OC [Compound 863840] | 54.2% | 0.88
COc1ccc(OC)c(N2C(=O)[C@@H]3C(c4ccccc4Cl)=NO[C@@H]3C2=O)c1 [Compound 864036] | 68.5% | 0.89
CN1CCC2=C(C1)SC1C2C(NCc2ccco2)=Nc2nnnn21 (stereo not shown) [Compound 864825] | 96.4% | 1.26
COCCN1CCN2C(=NC3CC(NC(=O)NC4CCCCC4)CCC32)C1 (stereo not shown) [Compound 865452] | 79.7% | 0.73
O=C1NC(=O)[C@]2(Cc3ccccc3N3CCN(c4ccccc4)CC32)C(=O)N1c1ccccc1 (stereo partly shown) [Compound 865821] | 53.1% | 1.21
c1ccc(-c2nn3c(Cn4nnc5ccccc54)nnc3s2)nc1 [Compound 865899] | 82.6% | 1.32
